From patent US20170354650A1, “QUINOLINE DERIVATIVES FOR INHIBITING HISTONE METHYLTRANSFERASES AND USE THEREOF” (KOREA INSTITUTE OF SCIENCE AND TECHNOLOGY, priority 2016, published 2017)

Legend:
ESET/SETDB1 = assay: Screening with Tet-inducible ESET/SETDB1 cell line (dot blot analysis, FIG. 1); format: cell-based; conditions: among 107 selected library compounds
Experimental: In order to find compounds that inhibit the ESET/SETDB1 enzyme, 107 compounds expected to inhibit the activity of ESET/SETDB1 were selected through structural modeling from a compound library. These compounds were screened using a Tet-inducible ESET cell line.
Tet-Inducible ESET (H3K9 Specific Histone Methyltransferase) Cell Line (Tetracycline-Inducible ESET Cells):
A Tet-inducible ESET cell line was prepared using the T-REx™ system available from Invitrogen. The myc-ESET gene was subcloned into pcDNA5/TO and transfected into somatic mother cells (STHdh^Q7/7, striatal cells) using pcDNA6/TR.
Confocal Microscopy for Determination of H3K9me3 (Confocal Microscopy for Identification of Change in Heterochromatin Condensation by H3K9Me3 and Drug)
An indirect fluorescence labeling method using fluorescein-conjugated secondary antibodies was used. After fixing ESET inducible cells with 4% PFA and incubating with H3K9me3 (rabbit antibody; dilution, 1:200; Millipore) primary antibodies, the cells were incubated with fluorescence-conjugated secondary antibodies (Alexa 594; dilution, 1:400; Thermo). Images were obtained using a confocal microscope (IX2-DSU, Olympus, Tokyo, Japan).
Among those compounds, #7 compound was a quinolone derivative, which is selected as a hit-compound through the instant experiment. The #7 compound in FIG. 1 is Compound 8 in the present invention.

ESET/SETDB1 enzyme = molecular target: T1, ESET/SETDB1 enzyme (Homo sapiens, UniProt Q15047); assay: SETDB1 chemiluminescence enzyme assay (BPS Bioscience kit); format: biochemical; conditions: test compound 1-100 μM, FIG. 2
T1 construct: purchased BPS Bioscience
Experimental: In order to investigate the inhibitory effect against the activity of the ESET/SETDB1 enzyme of the compounds according to the present disclosure, SETDB1 chemiluminescence assay was conducted for the compound 8. The SETDB1 assay was performed using the SetDB1 chemiluminescent assay kit (BPS Bioscience) according to the manufacturer's protocol. S-Adenosylmethionine (SAM, stock concentration 20 μM) was used as a […]. First, SAM and the test compounds were prepared to final concentrations of 1 μM, 3 μM, 10 μM, 30 μM and 100 μM by diluting with DMSO (final volume 1 μL). 150 μL of a TBST buffer (1X TBS, pH 8.0, containing 0.05% Tween-20) was added to each well of a 96-well plate and hydrated at room temperature for 15 minutes. A master mix containing an assay buffer, the compound 8 and the SETDB1 enzyme was prepared.
25 μL (7.5 μL 4×HMT buffer+2.5 μL 20 μM SAM+15 μL H2O) of the prepared master mix was added to each well of the plate. Then, 1 μL of the test compound (1 μM, 3 μM, 10 μM, 30 μM or 100 μM) and 20 μL of the diluted SetDB1 enzyme were added sequentially. […] Chemiluminescence resulting from the reaction between the HRP-conjugated secondary antibody and the added HRP substrate was measured using a chemiluminescence reader (Molecular Devices microplate reader) and the result was analyzed using the SoftMax Pro software.

transgenic YAC128 mouse = assay: Rotarod performance test in YAC128 animal model; format: in vivo; conditions: 15-month-old male YAC128 mice, 0.636 mg/kg for 3 weeks, 5 days a week, 5 rpm, compared to the vehicle, FIG. 3
Experimental: The effect of the compound according to the present disclosure on motor ability was evaluated using the transgenic YAC128 mouse which expresses the human Huntingtin gene containing 128 CAG repeat sequences as a model of Huntington's disease (HD) (Menalled L et al., 2009, Neurobiol Dis 35(3):319-36). The Huntington's disease model mouse is reported to show decline in motor ability, which is the typical pathological symptom of Huntington's disease, from 6 around months after birth, progress of neurodegeneration from 9 months and aggregation of mutant Huntington's genes in striatal neurons from around 18 months.
Rotarod performance test was conducted using 15-month-old male YAC128 mice. The drug was administered (0.636 mg/kg) for 3 weeks, 5 days a week, and the rotarod test was performed on the 5th day of each week.
The mouse was placed on a rotating rod (4 cm in diameter) and riding time was measured. The experiment was performed 4 times on the same day and 60 seconds was given to each mouse. The rotarod rotation speed was set to 5 rpm. The period of time until the mouse fell to the ground was measured. When the mouse remained longer than 60 seconds on the rod, the riding time was recorded as 60 seconds. The recorded time was statistically analyzed and was used as an indicator of the motor ability and balance of the mouse.

[1] = tested on: trimethylation of H3K9 (H3K9me3); assay: Change in H3K9 trimethylation in brain of YAC128 mouse; format: in vivo; conditions: striatal brain tissue of YAC128 mouse, anti-H3K9me3 blot, FIGS. 4A and 4B
Experimental: After adding the striatal brain tissue of YAC128 mouse to 1 mL of PBS containing 0.4 mM sodium butyrate, 5% Triton X-100, 3 mM DTT, 1 mM sodium orthovanadate, 5 mM sodium fluoride, 3 mM PMSF, 0.5 mg/mL leupeptin and 10 mg/mL aprotinin, a cell homogenate was obtained using a Downce crusher. After centrifugation at 3000 rpm for 10 minutes, the supernatant was removed. The precipitating cell pellet was washed twice with a 5% Triton buffer and histone was extracted with 0.2 M HCl. After neutralizing the histone-containing solution to neutral pH with 1 N NaOH, proteins were quantitated and separated by 15% SDS-PAGE. The change in trimethylation of H3K9 (H3K9me3) was investigated using anti-H3K9me3 (rabbit antibody; dilution, 1:1000; Millipore).

Structure (SMILES) | inhibitory effect against ESET/SETDB1 (ESET/SETDB1) | trimethylation of H3K9 (H3K9me3) (ESET/SETDB1 enzyme) | riding time on the rod (transgenic YAC128 mouse) | intensity of trimethylated H3K9 [1]
C=CCNc1cccc2nc(N3CCCCC3)ccc12 [Compound 4, 2-(piperidin-1-yl)-N-allylquinolin-5-amine] | significant inhibitory effect |  |  | 
C=CCOc1cccc2nc(N3CCCC3)ccc12 [Compound 8, 5-allyloxy-2-(pyrrolidin-1-yl)quinoline] | significant inhibitory effect | remarkably decreased | remarkably increased | remarkably decreased
C=CCOc1cccc2nc(Nc3ccccc3)ccc12 [Compound 11, 5-allyloxy-N-phenylquinolin-2-amine] | significant inhibitory effect |  |  | 
